From ChEMBL document CHEMBL2073818, “St John's Wort induces intestinal P-glycoprotein/MDR1 and intestinal and hepatic CYP3A4” (Clin Pharmacol Ther, 2000) come the findings set out here.

In this data set the target is ATP-dependent translocase ABCB1 (Homo sapiens, UniProt P08183). Nature of the data set: TP_TRANSPORTER: Western in vivo human. Type of data set: functional, organism-based.
ATP-dependent translocase ABCB1, sequence (P08183 whole entry): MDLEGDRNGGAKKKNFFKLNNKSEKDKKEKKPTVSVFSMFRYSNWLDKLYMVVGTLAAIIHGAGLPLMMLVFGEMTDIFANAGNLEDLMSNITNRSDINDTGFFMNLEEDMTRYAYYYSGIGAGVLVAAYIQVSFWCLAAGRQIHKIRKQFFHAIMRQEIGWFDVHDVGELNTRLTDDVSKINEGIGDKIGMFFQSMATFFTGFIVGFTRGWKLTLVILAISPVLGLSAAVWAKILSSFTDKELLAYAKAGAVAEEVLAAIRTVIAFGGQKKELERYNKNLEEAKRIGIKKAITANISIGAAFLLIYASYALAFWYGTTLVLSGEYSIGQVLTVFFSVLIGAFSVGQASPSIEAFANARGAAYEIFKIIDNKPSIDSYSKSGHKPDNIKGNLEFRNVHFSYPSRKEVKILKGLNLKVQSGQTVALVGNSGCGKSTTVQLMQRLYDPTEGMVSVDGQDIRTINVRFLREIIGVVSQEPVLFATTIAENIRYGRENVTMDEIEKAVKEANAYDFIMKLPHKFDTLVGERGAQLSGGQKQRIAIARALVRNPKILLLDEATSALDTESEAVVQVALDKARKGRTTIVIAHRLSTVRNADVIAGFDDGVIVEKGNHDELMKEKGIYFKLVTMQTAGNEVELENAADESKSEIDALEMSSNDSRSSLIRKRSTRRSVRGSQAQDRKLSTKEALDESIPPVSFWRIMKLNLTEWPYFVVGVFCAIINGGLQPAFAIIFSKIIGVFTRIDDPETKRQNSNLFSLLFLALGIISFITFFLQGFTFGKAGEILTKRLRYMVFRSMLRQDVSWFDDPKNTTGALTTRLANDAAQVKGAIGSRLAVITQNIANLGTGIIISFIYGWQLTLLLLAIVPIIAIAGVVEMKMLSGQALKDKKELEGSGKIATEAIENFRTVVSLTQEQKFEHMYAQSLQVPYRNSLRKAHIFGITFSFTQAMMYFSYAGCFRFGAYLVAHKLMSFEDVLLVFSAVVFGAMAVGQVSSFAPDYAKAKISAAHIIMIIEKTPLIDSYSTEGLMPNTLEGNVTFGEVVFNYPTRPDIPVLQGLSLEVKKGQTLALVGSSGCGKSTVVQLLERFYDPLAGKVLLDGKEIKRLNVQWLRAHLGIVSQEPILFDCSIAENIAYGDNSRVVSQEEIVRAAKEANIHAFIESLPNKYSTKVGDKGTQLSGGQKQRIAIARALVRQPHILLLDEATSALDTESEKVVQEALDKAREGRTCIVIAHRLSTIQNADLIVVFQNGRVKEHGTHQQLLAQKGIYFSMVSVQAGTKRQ

In the case of ST. JOHN'S WORT, the Activity entry is “inducer [+]”.
